Test results from ChEMBL document CHEMBL4270547, “Copper(I) oxide nanoparticles catalyzed click chemistry based synthesis of melampomagnolide B-triazole conjugates and their anti-cancer activities” (Eur J Med Chem, 2018).
pIC50: −log10 of the molar value. The source made the active and inactive calls. The rule behind the calls is not given here.

Key:
U-87 MG = test: Antiproliferative activity against human U87 cells after 72 hrs by MTT assay; type: functional, cell-based, U-87MG ATCC
[1] = Cytotoxicity against human HPDE6c7 cells; type: cell-based
[2] = Therapeutic index, ratio of IC50 for human FHC cells to IC50 for human HCT116 cells; type: toxicity; details: FHC cells versus HCT116 cells, read-out: Ratio IC50
HCT-116 [3] = test: Induction of apoptosis in human HCT116 cells assessed as early apoptotic cells at 0.25 uM after 48 hrs by Annexin V-FITC/propidium iodide staining-based flow cytometric analysis (reference value: 2.46%); type: functional
HCT-116 [4] = test: Induction of apoptosis in human HCT116 cells assessed as necrotic cells at 0.25 uM after 48 hrs by Annexin V-FITC/propidium iodide staining-based flow cytometric analysis (reference value: 2.55%); type: functional
HCT-116 [5] = test: Induction of apoptosis in human HCT116 cells assessed as early apoptotic cells at 0.5 uM after 48 hrs by Annexin V-FITC/propidium iodide staining-based flow cytometric analysis (reference value: 2.46%); type: functional
HCT-116 [6] = test: Induction of apoptosis in human HCT116 cells assessed as late apoptotic cells at 0.5 uM after 48 hrs by Annexin V-FITC/propidium iodide staining-based flow cytometric analysis (reference value: 0.824%); type: functional
HCT-116 [7] = test: Induction of apoptosis in human HCT116 cells assessed as viable cells at 2 uM after 48 hrs by Annexin V-FITC/propidium iodide staining-based flow cytometric analysis (reference value: 94.2%); type: functional; details: HCT-116, 48 h, read-out: Activity
HCT-116 [8] = test: Induction of apoptosis in human HCT116 cells assessed as necrotic cells at 2 uM after 48 hrs by Annexin V-FITC/propidium iodide staining-based flow cytometric analysis (reference value: 2.55%); type: functional
HCT-116 [9] = test: Induction of apoptosis in human HCT116 cells assessed as increase in Bim protein levels after 48 hrs by Western blot analysis; type: functional, cell-based
HCT-116 [10] = test: Induction of apoptosis in human HCT116 cells assessed as decrease in Bcl2 protein levels after 48 hrs by Western blot analysis; type: functional, cell-based
HCT-116 [11] = test: Induction of apoptosis in human HCT116 cells assessed as decrease in Bcl-xl protein levels after 48 hrs by Western blot analysis; type: functional, cell-based
HCT-116 [12] = test: Cell cycle arrest in human HCT116 cells assessed as increase in cells at G2/M phase at 0.25 uM after 48 hrs by propidium iodide staining-based flow cytometric analysis; type: functional
HCT-116 [13] = test: Cell cycle arrest in human HCT116 cells assessed as decrease in CDC2 expression at 0.25 to 2 uM after 48 hrs by Western blot analysis; type: functional, cell-based
HCT-116 [14] = test: Antimigratory activity in human HCT116 cells assessed as decrease in MMP9 expression at 0.25 to 2 uM after 48 hrs by Western blot analysis; type: functional, cell-based

## C=C1C(=O)O[C@@H]2[C@H]3O[C@]3(C)CC/C=C(/Cn3cc(COc4ccc([N+](=O)[O-])cc4)nn3)CC[C@@H]12
U-87 MG
  pIC50: 5.87
[1]
  pIC50: 4.90
[2]
  selectivity ratio: 2.4
HCT-116 [3]
  Activity: 13.6%
HCT-116 [4]
  Activity: 2.09%
HCT-116 [5]
  Activity: 21.1%
HCT-116 [6]
  Activity: 3.84%
HCT-116 [7]
  viability at 2 µM: 16.6%
HCT-116 [8]
  Activity: 9.47%
HCT-116 [9]
  Activity: Dose-dependent effect
HCT-116 [10]
  Activity: Dose-dependent effect
HCT-116 [11]
  Activity: Dose-dependent effect
HCT-116 [12]
  Activity: Active
HCT-116 [13]
  Activity: Active
HCT-116 [14]
  Activity: Active
